In data set [1] the test system is Individuals at risk for ILD. Description: Oral resveratrol for chemoprevention of ILD in individuals at risk (Example 11). Format: in vivo, human. The note with it: 2 to 5 years. As for the experimental part:
Resveratrol is evaluated clinically for efficacy in chemoprevention of ILD in smokers. The study is generally patterned after the COPD chemoprevention study (Example 10) with modifications appropriate to the clinical and histopathologic evaluation of ILD, and the references listed in the preceding examples may be applied as appropriate. Individuals at risk with no disease or mild COPD are treated once or more per day with gelatin capsules containing resveratrol. A population of individuals at risk for a specific ILD, such as silicosis can be studied, or several such populations such as sand blasters (silicosis) and coal miners can be studied in parallel The different populations are subdivided into subpopulations: clinically and histopathologically disease free, clinically asymptomatic with histopathologic inflammation and mildly ILD symptomatic, meaning some fibrosis but no pulmonary impairment causing hypoxemia or acidosis. […] Patients are medically monitored for clinical symptoms of ILD throughout the study, including onset of symptoms and frequency and severity thereof. […] Forced expiratory volume (FEV) and forced inspiratory volume (FIV) are also evaluated to measure airway patency as a direct measure of clinical morbidity and to determine correlation the histopathologic and other indicators of clinical disease. […]

Data set [2] has as its system patients resistant to existing pulmonary steroid therapy. Description: Resveratrol supplementation vs increasing steroid dose in steroid resistant asthma (Example 7). Type of data set: in vivo, human. The note with it: oral or pulmonary resveratrol added to inhaled steroid. From the text:
Instead of steroid naive chid asthmatic patients (children are chosen because of the increased gravity of systemic endocrine effects for children, but adults can be analogously studied) selected in Example 6, patients reesistant to existing pulmonary steroid therapy are selected. The study is otherwise analogous to the study in […], except that in the first two groups the oral or inhaled resveratrol supplements the inhaled steroid dose being administered prior to the beginning of the evaluation, while the third group has the dosage of inhaled steroid being administered prior to the study doubled. Alternatively the third group can receive oral prednisone in the appropriate systemic dose. The evaluation is otherwise performed identically to that in Example 6.

Consider `Oc1ccc(/C=C/c2cc(O)cc(O)c2)cc1` [Resveratrol, 3,5,4′-trihydroxystilbene], for which the side effects entry in data set [1] (oral, relative to those expected from steroid administration) is “without significant side effects”. Further, in data set [1] (oral, 200, 2000 or 3000 mg/day), the “efficacy in chemoprevention of ILD” value was “effective for chemoprevention of ILD”. The “systemic side effects compared with doubling steroid dosage” value in data set [2] is “reduced systemic side effects compared with doubling steroid dosage”. Besides, the “efficacy as supplement to existing steroid therapy vs doubling inhaled steroid dose” value in data set [2] (steroid resistant asthma) is “as or more effective as supplements to existing steroid therapy for antiinflammatory treatment than doubling inhaled steroid dose”.

The values are drawn from patent publication US6878751B1, “Administration of resveratrol to treat inflammatory respiratory disorders” (Imperial College of Science Technology and Medicine, priority 2000, dated 2005).
